Laboratory results as given in patent US11447496B2, “Nitrogen-containing fused heterocyclic ring compound and application thereof” (GUANGZHOU CHINARAY OPTOELECTRONIC MATERIALS LTD., priority 2016, dated 2022).
≈ marks a conversion by molar mass, not a printed value. Where two headings read alike, the source gives them in different places.

Assay: Solubility in toluene, xylene and chloroform at 25° C.
Type: physicochemical
Settings: organic solvent or mixture
Procedure: 1. A solubility (mg/mL) of compounds of Examples 1 to 11 and CBP, i.e., 4,4′-bis(9H-carbazol-9-yl)biphenyl, in toluene, xylene and chloroform was measured. The test temperature was 25° C.

[1] = chloroform, in chloroform, read-out: Solubility Chloroform
[2] = chloroform, in chloroform, read-out: solubility in chloroform (text summary of Table 1)
[3] = toluene, in toluene, read-out: Solubility Toluene
[4] = toluene, in toluene, read-out: solubility in toluene (text summary of Table 1)
[5] = xylene, in xylene, read-out: Solubility Xylene
[6] = xylene, in xylene, read-out: solubility in xylene (text summary of Table 1)

SMILES	solubility [1] [mg/mL]	solubility [2] [mg/mL]	solubility [3] [mg/mL]	solubility [4] [mg/mL]	solubility [5] [mg/mL]	solubility [6] [mg/mL]
c1ccc(-c2nc(-c3cccc4c3-c3ccccc3C43c4ccccc4-c4ccccc43)nc(-n3c4ccccc4c4ccc5c6ccccc6n(-c6ccccc6)c5c43)n2)cc1 [Example 1]	410 (≈ 511 mM)	> 300	250 (≈ 312 mM)	> 200	320 (≈ 399 mM)	> 240
c1ccc(-c2nc(-c3ccc4c(c3)C3(c5ccccc5Sc5ccccc53)c3ccccc3-4)nc(-n3c4ccccc4c4ccc5c6ccccc6n(-c6ccccc6)c5c43)n2)cc1 [Example 9]	434 (≈ 520 mM)	> 300	285 (≈ 342 mM)	> 200	354 (≈ 424 mM)	> 240
CC1(C)c2ccccc2-c2ccc3c4ccccc4n(-c4nc(-c5ccccc5)nc(-c5cccc6c5-c5ccccc5C65c6ccccc6-c6ccccc65)n4)c3c21 [Example 8]	510 (≈ 677 mM)	> 300	400 (≈ 531 mM)	> 200	452 (≈ 600 mM)	> 240
c1ccc(-c2cc(-c3ccc4c(c3)-c3ccccc3C43c4ccccc4-c4ccccc43)nc(N3c4ccccc4Oc4ccc5c(c43)c3ccccc3n5-c3ccccc3)n2)cc1 [Example 4]	430 (≈ 526 mM)	> 300	305 (≈ 373 mM)	> 200	362 (≈ 443 mM)	> 240
c1ccc(-c2nc(-c3cccc4c3-c3ccccc3C43c4ccccc4-c4ccccc43)nc(-n3c4ccccc4c4cc5c6ccccc6n(-c6ccccc6)c5cc43)n2)cc1 [Example 2]	294 (≈ 367 mM)	> 300	205 (≈ 256 mM)	> 200	256 (≈ 319 mM)	> 240
[2H]c1cc2c3ccccc3n(-c3nc(-c4ccccc4)cc(-c4ccc5c(c4)-c4ccccc4C54c5ccccc5-c5ccccc54)n3)c2c2c3ccccc3n(-c3ccccc3)c12 [Example 11]	374 (≈ 466 mM)	> 300	268 (≈ 334 mM)	> 200	313 (≈ 390 mM)	> 240
CC1(C)c2ccccc2N(c2ccccc2)c2cc3c(cc21)N(c1nc(-c2ccccc2)cc(-c2cccc4c2-c2ccccc2C42c4ccccc4-c4ccccc42)n1)c1ccccc1C3(C)C [Example 7]	473 (≈ 534 mM)	> 300	362 (≈ 409 mM)	> 200	405 (≈ 458 mM)	> 240
CC1(C)c2ccccc2N(c2nc(-c3ccccc3)nc(-c3cccc4c3-c3ccccc3C43c4ccccc4-c4ccccc43)n2)c2ccc3c4ccccc4n(-c4ccccc4)c3c21 [Example 6]	460 (≈ 545 mM)	> 300	350 (≈ 415 mM)	> 200	392 (≈ 464 mM)	> 240
CC1(C)c2ccccc2N(c2nc(-c3ccccc3)nc(-c3ccc4c(c3)-c3ccccc3C43c4ccccc4-c4ccccc43)n2)c2cc3c(cc21)c1ccccc1n3-c1ccccc1 [Example 5]	445 (≈ 527 mM)	> 300	330 (≈ 391 mM)	> 200	376 (≈ 445 mM)	> 240
c1ccc(-c2nc(-c3cccc4c3-c3ccccc3C43c4ccccc4-c4ccccc43)nc(-n3c4ccccc4c4c5c6ccccc6n(-c6ccccc6)c5ccc43)n2)cc1 [Example 3]	285 (≈ 355 mM)	> 300	200 (≈ 249 mM)	> 200	243 (≈ 303 mM)	> 240
c1ccc(-c2nc(-c3ccc4c(c3)C3(c5ccccc5-4)c4ccccc4N(c4ccccc4)c4ccccc43)nc(-n3c4ccccc4c4cc5c6ccccc6n(-c6ccccc6)c5cc43)n2)cc1 [Example 10]	344 (≈ 385 mM)	> 300	220 (≈ 246 mM)	> 200	284 (≈ 318 mM)	> 240
c1ccc2c(c1)c1ccccc1n2-c1ccc(-c2ccc(-n3c4ccccc4c4ccccc43)cc2)cc1 [CBP, 4,4′-bis(9H-carbazol-9-yl)biphenyl, reference compound]	185 (≈ 382 mM)		130 (≈ 268 mM)		153 (≈ 316 mM)	
